Test results from PubChem BioAssay (NCI).
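Method: 48-hour compound exposure of cells in 96-well plates, five concentrations, linear interpolation of endpoints. At the GI50, growth is halved. TGI is the concentration that stops growth completely.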

Assays:
Assay in all cases: inhibition of tumour cell growth, NCI panel, 48 h
CCRF-CEM leukemia = test system: CCRF-CEM leukemia
HCT-116 colon = test system: HCT-116 colon
UACC-62 melanoma = test system: UACC-62 melanoma
HT29 colon = test system: HT29 colon
DU-145 prostate = test system: DU-145 prostate
A549 NSCLC = test system: A549 NSCLC
OVCAR-5 ovarian = test system: OVCAR-5 ovarian
SW-620 colon = test system: SW-620 colon
OVCAR-8 ovarian = test system: OVCAR-8 ovarian
SK-MEL-2 melanoma = test system: SK-MEL-2 melanoma

Row | Compound | GI50 (CCRF-CEM leukemia) [µM] | TGI (CCRF-CEM leukemia) [µM] | GI50 (HCT-116 colon) [µM] | TGI (HCT-116 colon) [µM] | GI50 (UACC-62 melanoma) [µM] | TGI (UACC-62 melanoma) [µM] | GI50 (HT29 colon) [µM] | TGI (HT29 colon) [µM] | GI50 (DU-145 prostate) [µM] | TGI (DU-145 prostate) [µM] | GI50 (A549 NSCLC) [µM] | TGI (A549 NSCLC) [µM] | GI50 (OVCAR-5 ovarian) [µM] | TGI (OVCAR-5 ovarian) [µM] | GI50 (SW-620 colon) [µM] | TGI (SW-620 colon) [µM] | GI50 (OVCAR-8 ovarian) [µM] | TGI (OVCAR-8 ovarian) [µM] | GI50 (SK-MEL-2 melanoma) [µM] | TGI (SK-MEL-2 melanoma) [µM]
1 | Cc1[nH]c(-c2nc3ccccc3[nH]2)c(C)c1C(=O)NC(C)C1CCCCC1 (stereo unspecified) | 5.49 | 21.4 | 10.1 | 24.2 | 6.95 | 21.6 | 4.89 | 38.2 | 14.6 | 28.2 | 12.2 | 34 | 15 | 29.2 | 4.95 | 18.3 | 16.5 | 39.5 | 10.1 | 25.5
2 | CCC(=O)Nc1ccccc1C#C/C=C\C#Cc1ccccc1C(F)(F)F | 2.4 | > 20 | 2.81 | 25.8 | 2.38 | > 50 | 5.94 | > 50 | 2.28 | 22.3 | 2.53 | > 32.6 | 3.2 | > 37 | 1.73 | > 24.4 | 8.04 | > 50 | 0.631 | > 11.1
3 | CC1(C)C(=O)/C=C\C(=O)C(C)(C)C(=O)/C=C\C(=O)C(C)(C)C(=O)/C=C\C(=O)C(C)(C)C(=O)/C=C\C1=O | – | 23.4 | – | 30.8 | – | 56.3 | – | 37.3 | – | > 100 | – | > 100 | – | 69.7 | – | 28.1 | – | 74.5 | – | 47.5
4 | Oc1ccc(CCNCc2cc3c(cc2Br)OCO3)cc1 | – | > 100 | – | > 100 | – | > 100 | – | > 100 | – | > 100 | – | > 100 | – | > 100 | – | > 100 | – | > 100 | – | 74.6
5 | c1cncc(C2Nc3cccc4cccc(c34)N2)c1 | 22.6 | > 100 | 16.5 | 31.6 | 38.7 | > 100 | 31.8 | > 100 | > 100 | > 100 | 38.8 | > 100 | 88.7 | > 100 | 18.4 | 36.3 | 20 | 48.6 | 30.9 | 64.4
6 | CCCCCCCCCCCCCCCC(=O)OCC1OC(OC)C2NP(=O)(N(CCCl)CCCl)OC1C2O (stereo unspecified) | – | 9.26 | – | 11.5 | – | 8.71 | – | > 66.8 | – | 54.8 | – | 39.9 | – | 59.2 | – | 17.4 | – | 13.5 | – | 24.3
7 | Cc1cc(C(=O)O)c(C)n1-c1cccc(C(=O)O)c1 | > 100 | > 100 | > 100 | > 100 | > 100 | > 100 | > 100 | > 100 | > 100 | > 100 | > 100 | > 100 | > 100 | > 100 | > 100 | > 100 | > 100 | > 100 | > 100 | > 100
8 | C/C(=N\NC(=S)N1CC2CCC(CC2)C1)c1cccc(C)n1 | 0.000124 | – | – | 2.78 | – | 6.85 | < 0.0001 | 11.4 | 0.378 | 7.1 | 0.248 | 12.9 | < 0.0001 | 15.9 | 0.383 | 31.8 | 0.229 | 13 | – | 21.4
9 | COC(=O)/C=C1/SC(N2N=C(c3cccs3)CC2c2ccc(F)cc2)=NC1=O (stereo unspecified) | 3 | 8.73 | 2.05 | 3.82 | 1.58 | 3.74 | 2.28 | 4.54 | 2.12 | 4.75 | 4.1 | 20.6 | 2.46 | 5.21 | 2.16 | 5 | 2.59 | 7.66 | 4.04 | 15.6
10 | CC(=O)C1=C(C)N(C)C2(O)C=CC(=O)C3=C(O)c4ccccc4C(=O)C312 (stereo unspecified) | 1.92 | > 100 | 2.77 | 7.09 | 3.89 | 14 | 24.1 | > 100 | 5.27 | 21.8 | 23 | > 100 | 22.1 | 66.1 | 4.41 | 33.5 | 24 | > 100 | 30.6 | > 100
11 | C=CC/C(=C\COP(=O)(OCc1ccc([N+](=O)[O-])o1)N(C)CCCCCl)CC/C=C(\C)CCC=C(C)C (stereo unspecified) | 0.0483 | 15.9 | 3.76 | 18 | 13.8 | 26.7 | 11.6 | 25.5 | 11.6 | 23.8 | 13.9 | 26.9 | 15.7 | 29 | 9.44 | 21.3 | 12.6 | 25.1 | 13.6 | 26.4
12 | O=C(O)CCc1c2ccc(=O)c(O)c-2oc2c(O)c(O)ccc12 | – | 13.8 | – | 59.5 | – | > 100 | – | > 100 | – | > 100 | – | > 100 | – | > 100 | – | 59.9 | – | > 100 | – | > 100
13 | Oc1cccc(/C=N/Nc2nnc(N/N=C/c3cccc(O)c3)c3ccccc23)c1 | – | 88.3 | – | 43.1 | – | 30.2 | – | > 100 | – | 66 | – | 57.5 | – | > 100 | – | 56.8 | – | 18.1 | – | 83.6
14 | COC(=O)C(CBr)CBr | – | 1.83 | – | 11.5 | – | 18.1 | – | 11 | – | 31.9 | – | 36.3 | – | 31.2 | – | 3.11 | – | 8.83 | – | 30.5
15 | Cc1[nH]nc2c1N=C(c1ccccc1F)c1cc(C(N)=O)ccc1N2 | 1.15 | > 14.9 | 1.02 | > 25 | 4.11 | 9.17 | 4.92 | > 25 | 6.71 | > 25 | 7.56 | > 25 | 9.61 | > 22.3 | 2.34 | > 25 | 5.77 | > 25 | 2.45 | 7.14
